From paper PMC7466821 (Investigational new drugs, 2017)
Where “and” joins values, the source holds several entries; their conditions need not be identical. Identical values can stand only once.

Tests used:
[1] = in vivo
[2] = ME-344 plasma pharmacokinetics, Part 1 cycle 1, noncompartmental; details: ME-344 10 mg/kg IV over 30 min with topotecan, 13 patients, arithmetic mean
[3] = test system: leukemia and lung cancer cell lines; details: cited from earlier work
[4] = test system: patients with locally advanced or metastatic SCLC, ovarian cancer or cervical cancer; assay: Phase Ib Part 1: DLT evaluation and RP2D determination; type: in vivo, human; details: IV over 30 min days 1, 8, 15, 22 every 28 days; topotecan 4 mg/m^2 days 1, 8, 15
[5] = test system: leukemia xenograft models; details: cited from earlier work
[6] = test system: patients with locally advanced or metastatic SCLC, ovarian and cervical cancers; details: in vivo
[7] = test system: patients with advanced solid tumors; details: cited from earlier work
patients = details: topotecan monotherapy; cited from earlier work

end-of-infusion concentration on Day 15 lower than on Day 1 [1] | t1/2 (terminal half-life) [2] | recommended phase II dose (RP2D) of ME-344 in combination with topotecan [4] [mg/kg] | SMILES | cytotoxicity in vitro [3] | anti-tumor activity [5] | patients with SAE related to ME-344 (grade 3 diarrhea) [6] [patient] | neurotoxicity ([6]; iv, 10 mg/kg) | doses at which DLT (grade 3 or higher peripheral neuropathy) was observed ([7]; IV weekly) | recommended phase II dose (RP2D), single agent ([7]; IV weekly) [mg/kg] | duration of prolonged stable disease [7] | patients with prolonged stable disease [7] [patients] | duration of partial response ([7]; single patient with SCLC) [weeks] | grade 3/4 hematologic toxicity rate (patients) [%] | SAEs related to topotecan in the additional patients ([6]; human) [SAEs] | additional patients with SAEs related to topotecan ([6]; human) [patients]
approximately 27% | 5.3 h and 5.301 h | 10 | Cc1c(O)ccc2c1OC[C@@H](c1ccc(O)cc1)[C@H]2c1ccc(O)cc1 [ME-344] | cytotoxic | demonstrates anti-tumor activity | 1 | neurotoxicity was not observed | 15 to 20 mg/kg and > 10 mg/kg | 10 | 31–52 weeks | 5 | 52 | – | – | –
– | – | – | CC[C@@]1(O)C(=O)OCc2c1cc1n(c2=O)Cc2cc3c(CN(C)C)c(O)ccc3nc2-1 [topotecan, reference compound] | – | – | – | – | – | – | – | – | – | 16.7 | 6 | 5
